For 1 compound, Kd results are on record in ChEMBL document CHEMBL1143983, “A photoswitchable ITAM peptidomimetic: synthesis and real time surface plasmon resonance (SPR) analysis of the effects of cis-trans isomerization on binding” (Bioorg Med Chem, 2008).

pKd: −log10 of the molar value.

In the assay the target is Tyrosine-protein kinase SYK (Homo sapiens, UniProt P43405). As to the kind of experiment: Binding affinity to Syk tSH2 domain by SPR binding assay. (SPR reads the build-up and loss of mass on a sensor chip optically.)

The pKd is the Kd on a negative log10 scale, so that one unit is a factor of ten. As to `CC(=O)N[C@@H](Cc1ccc(OP(=O)(O)O)cc1)C(=O)N[C@H](C(=O)NCC(=O)N[C@@H](CC(C)C)C(=O)NCC(=O)NCc1ccc(/N=N/c2ccc(C(=O)NCC(=O)N[C@@H](Cc3ccc(OP(=O)(O)O)cc3)C(=O)N[C@@H](CCC(=O)O)C(=O)N[C@H](C(=O)N[C@@H](CC(C)C)C(N)=O)[C@H](C)O)cc2)cc1)[C@H](C)O`, the pKd is 7.19.
